Laboratory results: ChEMBL document CHEMBL3217439, “Deciphering intracellular targets of organochalcogen based redox catalysts” (Medchemcomm, 2012)
Active and inactive are the calls of the source. No cut-off for these calls is given here.

What was measured:
Tubulin (Sus scrofa) [1] = target: T1, Tubulin (Sus scrofa) (UniProt P02554+P02550); assay: Binding affinity to pig brain tubulin after 2 hrs by DARTS-Western blot method; assay type: tissue-based
HUVEC [2] = assay: Cytotoxicity against HUVEC after 18 hrs by MTT assay; assay type: functional, cell-based; details: Homo sapiens
A-431 [3] = assay: Increase in ROS production in human A431 cells at after 1 hr by DCF assay; assay type: functional, cell-based
Escherichia coli [4] = assay: Antimicrobial activity against Escherichia coli expressing tolC after 1 to 2 days by agar diffusion assay; assay type: functional, organism-based
A-431 [5] = assay: Induction of apoptosis in human A431 cells at 10 ug/ml after 16 hrs using annexin V/propidium iodide by flow cytometry; assay type: functional, cell-based
Wickerhamomyces anomalus = assay: Antimicrobial activity against Hansenula anomala after 1 to 2 days by agar diffusion assay; assay type: functional, organism-based
Mycolicibacterium phlei = assay: Antimicrobial activity against Mycobacterium phlei after 1 to 2 days by agar diffusion assay; assay type: functional, organism-based
Micrococcus luteus = assay: Antimicrobial activity against Micrococcus luteus after 1 to 2 days by agar diffusion assay; assay type: functional, organism-based
[6] = Cytotoxicity against human KB3-1 cells after 18 hrs by MTT assay; assay type: functional, cell-based; details: KB 3-1, 18 h
Pseudomonas aeruginosa = assay: Antimicrobial activity against Pseudomonas aeruginosa after 1 to 2 days by agar diffusion assay; assay type: functional, organism-based
[7] = Depletion of actin filaments in Potorous tridactylus PtK2 cells at IC90 by microscopy; assay type: cell-based
A-431 [8] = assay: Cytotoxicity against human A431 cells after 18 hrs by MTT assay; assay type: functional, cell-based; details: A-431, 18 h
Botrytis cinerea = assay: Antimicrobial activity against Botrytis cinerea after 1 to 2 days by agar diffusion assay; assay type: functional, organism-based
Oryctolagus cuniculus [9] = species on record: Oryctolagus cuniculus; assay: Binding affinity to rabbit actin polymerization after 2 hrs by DARTS-Western blot method
HUVEC [10] = assay: Increase in ROS production in HUVEC at after 1 hr by DCF assay; assay type: functional, cell-based; details: Homo sapiens
Escherichia coli [11] = assay: Antimicrobial activity against Escherichia coli A1 after 1 to 2 days by agar diffusion assay; assay type: functional, organism-based
A-431 [12] = assay: Induction of apoptosis in human A431 cells at 12 ug/ml after 16 hrs using annexin V/propidium iodide by flow cytometry; assay type: functional, cell-based
[13] = Inhibition of rabbit actin polymerization by spectrophotometry; set-up: species or system Oryctolagus cuniculus
[14] = system: Globisporangium debaryanum; assay: Antimicrobial activity against Pythium debaryanum after 1 to 2 days by agar diffusion assay; assay type: functional, organism-based
Klebsiella pneumoniae = assay: Antimicrobial activity against Klebsiella pneumoniae after 1 to 2 days by agar diffusion assay; assay type: functional, organism-based
L929 = assay: Cytotoxicity against mouse L929 cells after 18 hrs by MTT assay; assay type: functional, cell-based; details: L929, 18 h
HCT-116 = assay: Cytotoxicity against human HCT116 cells after 18 hrs by MTT assay; assay type: functional, cell-based; details: HCT-116, 18 h
[15] = Cytotoxicity against Potorous tridactylus PtK2 cells after 18 hrs by MTT assay; assay type: functional, cell-based; details: PtK2, 18 h
[16] = Depletion of microtubules in Potorous tridactylus PtK2 cells at IC90 by microscopy; assay type: cell-based
A-431 [17] = assay: Reduction in ATP level in human A431 cells assessed as cell viability after 10 mins by Cell Titer Glo luminescent assay; assay type: functional, cell-based
Staphylococcus aureus = assay: Antimicrobial activity against Staphylococcus aureus after 1 to 2 days by agar diffusion assay; assay type: functional, organism-based
A-431 [18] = assay: Increase in ROS production in human A431 cells at after 1 hr by DHE assay; assay type: functional, cell-based
HUVEC [19] = assay: Increase in ROS production in HUVEC at after 1 hr by DHE assay; assay type: functional, cell-based; details: Homo sapiens
Tubulin = Tubulin (Sus scrofa, UniProt P02554+P02550); assay: (§1) Inhibition of pig brain tubulin polymerization by spectrophotometry
Aspergillus niger = assay: Antimicrobial activity against Aspergillus niger after 1 to 2 days by agar diffusion assay; assay type: functional, organism-based
A-431 [20] = assay: Induction of apoptosis in human A431 cells assessed as caspase3/7 activation at 2.6 uM after 5 to 25 mins by luminescence assay; assay type: functional, cell-based
Oryctolagus cuniculus [21] = species on record: Oryctolagus cuniculus; assay: Binding affinity to rabbit actin polymerization at IC90 after 2 hrs by DARTS-Western blot method
Tubulin (Sus scrofa) [22] = target: T1, Tubulin (Sus scrofa); assay: Binding affinity to pig brain tubulin at IC90 after 2 hrs by DARTS-Western blot method
Oryctolagus cuniculus [23] = species on record: Oryctolagus cuniculus; assay: Binding affinity to rabbit actin polymerization at IC50 after 2 hrs by DARTS-Western blot method
Tubulin (Sus scrofa) [24] = target: T1, Tubulin (Sus scrofa); assay: Binding affinity to pig brain tubulin at IC50 after 2 hrs by DARTS-Western blot method
Tubulin (Sus scrofa) [25] = target: T1, Tubulin (Sus scrofa); assay: as §1

T1 sequence (P02550 whole entry, looked up): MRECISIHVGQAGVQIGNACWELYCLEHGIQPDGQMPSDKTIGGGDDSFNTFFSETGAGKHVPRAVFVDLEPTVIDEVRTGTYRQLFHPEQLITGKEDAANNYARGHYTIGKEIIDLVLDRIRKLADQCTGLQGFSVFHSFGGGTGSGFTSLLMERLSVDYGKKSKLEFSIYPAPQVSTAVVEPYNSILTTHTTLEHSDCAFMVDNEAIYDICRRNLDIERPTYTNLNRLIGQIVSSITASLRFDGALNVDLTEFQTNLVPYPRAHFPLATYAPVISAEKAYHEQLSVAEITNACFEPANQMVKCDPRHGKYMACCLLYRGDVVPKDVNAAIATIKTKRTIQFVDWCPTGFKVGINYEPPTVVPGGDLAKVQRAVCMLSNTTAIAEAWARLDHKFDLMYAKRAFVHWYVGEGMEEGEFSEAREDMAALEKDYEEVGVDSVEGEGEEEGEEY
T1 sequence (P02554 whole entry, looked up): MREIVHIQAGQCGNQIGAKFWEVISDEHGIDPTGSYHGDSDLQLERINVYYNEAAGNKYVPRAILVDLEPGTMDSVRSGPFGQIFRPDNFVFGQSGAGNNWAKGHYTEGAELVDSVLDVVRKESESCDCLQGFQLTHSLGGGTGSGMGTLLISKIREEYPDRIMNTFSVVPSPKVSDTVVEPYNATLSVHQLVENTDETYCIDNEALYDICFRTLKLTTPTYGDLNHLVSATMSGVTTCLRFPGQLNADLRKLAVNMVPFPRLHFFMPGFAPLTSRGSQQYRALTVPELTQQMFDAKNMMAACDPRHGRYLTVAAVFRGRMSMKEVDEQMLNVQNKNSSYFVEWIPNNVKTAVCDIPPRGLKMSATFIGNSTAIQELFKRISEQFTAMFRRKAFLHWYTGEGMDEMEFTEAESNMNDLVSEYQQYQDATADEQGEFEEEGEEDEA

Structure (SMILES)	Activity (Tubulin (Sus scrofa) [1])	IC50 (HUVEC [2]) [µM]	Activity (A-431 [3])	Activity (Escherichia coli [4])	Activity (A-431 [5])	Activity (Wickerhamomyces anomalus)	Activity (Mycolicibacterium phlei)	Activity (Micrococcus luteus)	IC50 [6] [nM]	Activity (Pseudomonas aeruginosa)	Activity [7]	IC50 (A-431 [8]) [µM]	Activity (Botrytis cinerea)	Activity (HUVEC [10])	Activity (Escherichia coli [11])	Activity (A-431 [12])	IC50 [13] [µM]	Activity [14]	Activity (Klebsiella pneumoniae)	IC50 (L929) [µM]	further results
CC[C@@H](C)[C@H](NC(=O)[C@H]1CCCCN1C)C(=O)N(COC(=O)CC(C)C)[C@H](C[C@@H](OC(C)=O)c1nc(C(=O)N[C@@H](Cc2ccc(O)cc2)C[C@H](C)C(=O)O)cs1)C(C)C	Active	–	–	–	–	–	–	–	–	–	–	–	–	–	–	–	–	–	–	–	–
CC1=C([Te]c2ccccc2)C(=O)c2ccccc2C1=O	Dose-dependent effect	9.5	Dose-dependent effect	Active	Active	Active	Active	Active	1300	inactive	Active	5	Active	Dose-dependent effect	Active	Active	30	Active	Active	11	Activity (Oryctolagus cuniculus [9]): Dose-dependent effect; IC50 (HCT-116): 5.3 µM; IC50 [15]: 9 µM; Activity [16]: Active; Activity (A-431 [17]): Active; Activity (Staphylococcus aureus): Active; Activity (A-431 [18]): Dose-dependent effect; Activity (HUVEC [19]): Dose-dependent effect; IC50 (Tubulin): 15 µM; Activity (Aspergillus niger): Active; Activity (A-431 [20]): Active; Activity (Oryctolagus cuniculus [21]): Active; Activity (Tubulin (Sus scrofa) [22]): Active
COC1CC(O)/C=C/C=C/C=C\C(C)C(C(C)C(O)CC(C)O)OC(=O)/C=C/C=C/C=C/C(C)=C/C(C)C(O[C@H]2O[C@H](C)[C@@H](O)[C@H](OC)[C@H]2OC)/C=C\C=C\c2coc(n2)C1C (stereo partly specified)	–	–	–	–	–	–	–	–	–	–	–	–	–	–	–	–	–	–	–	–	Activity (Oryctolagus cuniculus [23]): Active
O=C1C([Te]c2ccccc2)=C([Te]c2ccccc2)C(=O)c2ccccc21	–	5.1	Dose-dependent effect	Active	Active	Active	Active	Active	250	inactive	Active	4.4	Active	Dose-dependent effect	Active	Active	30	Active	Active	5.8	Activity (Tubulin (Sus scrofa) [24]): inactive; IC50 (HCT-116): 5.4 µM; IC50 [15]: 7.2 µM; Activity [16]: inactive; Activity (A-431 [17]): Active; Activity (Staphylococcus aureus): Active; Activity (A-431 [18]): Dose-dependent effect; Activity (HUVEC [19]): Dose-dependent effect; inhibition (Tubulin (Sus scrofa) [25]): inactive; Activity (Aspergillus niger): Active; Activity (Oryctolagus cuniculus [23]): Active; Activity (A-431 [20]): Active
